In general, IC50 refers to the midpoint of a concentration-inhibition curve.

This experiment addresses T1, mADAM-10 or hADAM-10 (UniProt O14672).
T1 sequence (O14672 1-748): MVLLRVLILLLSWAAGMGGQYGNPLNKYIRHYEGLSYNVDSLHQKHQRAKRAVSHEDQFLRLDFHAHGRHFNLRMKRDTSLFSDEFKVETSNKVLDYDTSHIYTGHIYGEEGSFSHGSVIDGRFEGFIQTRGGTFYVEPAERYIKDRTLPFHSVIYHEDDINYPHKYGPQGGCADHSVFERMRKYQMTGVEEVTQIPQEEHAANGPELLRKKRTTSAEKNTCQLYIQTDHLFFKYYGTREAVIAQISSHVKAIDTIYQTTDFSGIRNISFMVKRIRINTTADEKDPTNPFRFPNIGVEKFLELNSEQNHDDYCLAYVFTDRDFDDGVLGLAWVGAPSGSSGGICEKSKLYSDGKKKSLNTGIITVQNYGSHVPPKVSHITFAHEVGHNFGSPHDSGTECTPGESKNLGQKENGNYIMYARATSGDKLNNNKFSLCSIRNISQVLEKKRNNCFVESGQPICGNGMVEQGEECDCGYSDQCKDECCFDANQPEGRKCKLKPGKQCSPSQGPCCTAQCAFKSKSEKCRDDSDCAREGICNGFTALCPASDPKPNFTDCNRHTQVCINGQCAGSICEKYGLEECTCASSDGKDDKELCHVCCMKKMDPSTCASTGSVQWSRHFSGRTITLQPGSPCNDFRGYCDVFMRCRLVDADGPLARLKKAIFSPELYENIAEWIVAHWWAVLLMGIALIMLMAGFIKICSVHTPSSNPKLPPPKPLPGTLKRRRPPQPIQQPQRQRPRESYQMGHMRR
Nature of the experiment: ADAM-10 enzyme assay (fluorogenic peptide cleavage).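 Note: fluorescence from cleavage of a quenched 10-residue DABCYL/EDANS peptide by 5 nM enzyme in HEPES pH 8.0 buffer, 16 hr at room temperature, compounds serially diluted 100 µM to 0.5 nM.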 It is filed as biochemical.
Description: mADAM-10 or hADAM-10 activity was measured as the ability to cleave a 10-residue peptide (DABCYL-Leu-Leu-Ala-Gln-Lys-*-Leu-Arg-Ser-Ser-Arg-EDANS). […] Enzyme was diluted to a final active concentration of 5 nM in Buffer A (50 mM HEPES 8.0, 100 mM NaCl, 1 mM CaCl2 and 0.01% NP-40). Serial dilutions for compounds were performed ranging from 100 μM to 0.5 nM using a Beckman Biomek 2000 in polypropylene plates (Greiner). […] This reaction was incubated for 16 hr at RT and fluorescence was read using identical conditions.
With `O=C(NO)[C@H]1CN(C(=O)Cc2cccnc2)CCN1S(=O)(=O)c1cc(F)c(Oc2ccc(Cl)cc2)c(F)c1` [Entry 47], the IC50 is less than 50 nM.

The molecule `CN(C)CCS(=O)(=O)N1CCN(S(=O)(=O)c2cc(F)c(Oc3ccc(Cl)cc3)c(F)c2)[C@@H](C(=O)NO)C1` [Entry 54] came in with an IC50 of less than 50 nM.

In the case of `O=C(NO)[C@H]1CN(C(=O)OCCN2CCCC2)CCN1S(=O)(=O)c1cc(F)c(Oc2ccc(Cl)cc2)c(F)c1` [Entry 18], the IC50 was less than 50 nM.

The molecule `CN(C)c1ccc2ccc(S(=O)(=O)N3CCN(S(=O)(=O)c4cc(F)c(Oc5ccc(Cl)cc5)c(F)c4)[C@@H](C(=O)NO)C3)cc2c1` [Entry 50] came in with an IC50 of 1000 to 20000 nM.

In the case of `O=C(NO)[C@H]1CN(C(=O)N2CCOCC2)CCN1S(=O)(=O)c1ccc(Oc2ccc(F)cc2)cc1` [Entry 2], the IC50 was less than 50 nM.

As for `O=C(NO)[C@H]1CN(S(=O)(=O)c2cccnc2O)CCN1S(=O)(=O)c1cc(F)c(Oc2ccc(Cl)cc2)c(F)c1` [Entry 45], the IC50 is less than 50 nM.

`COCCOC(=O)N1CCN(S(=O)(=O)c2ccc(Oc3ccc(C#N)cc3)c(F)c2)[C@@H](C(=O)NO)C1` [Entry 5] showed an IC50 of less than 50 nM.

`O=C(NO)[C@H]1CN(C(=O)Cc2ccncc2)CCN1S(=O)(=O)c1cc(F)c(Oc2ccc(Cl)cc2)c(F)c1` [Entry 52] showed an IC50 of less than 50 nM.

Molecule `O=C(NO)[C@H]1CN(S(=O)(=O)CCN2CCOCC2)CCN1S(=O)(=O)c1cc(F)c(Oc2ccc(Cl)cc2)c(F)c1` [Entry 57] returned an IC50 of 50 to 1000 nM.

The molecule `O=C(NO)[C@H]1CN(C(=O)NCCN2CCCC2)CCN1S(=O)(=O)c1cc(F)c(Oc2ccc(Cl)cc2)c(F)c1` [Entry 17] displayed a 50% inhibitory concentration (IC50) of less than 50 nM.

Turning to `CN1CCN(CC(=O)N2CCN(S(=O)(=O)c3cc(F)c(Oc4ccc(Cl)cc4)c(F)c3)[C@@H](C(=O)NO)C2)CC1` [Entry 24], the IC50 is less than 50 nM.

In turn, `CN1CCN(C(=O)N2CCN(S(=O)(=O)c3cc(F)c(Oc4ccc(Cl)cc4)c(F)c3)[C@@H](C(=O)NO)C2)CC1` [Entry 16] had an IC50 of less than 50 nM.

In turn, `O=C(NO)[C@H]1CN(S(=O)(=O)Cc2cc(Cl)cc(Cl)c2)CCN1S(=O)(=O)c1cc(F)c(Oc2ccc(Cl)cc2)c(F)c1` [Entry 61] showed an IC50 of 50 to 1000 nM.

Molecule `O=C(CN1CCOCC1)NC(=O)N1CCN(S(=O)(=O)c2cc(F)c(Oc3ccc(Cl)cc3)c(F)c2)[C@@H](C(=O)NO)C1` [Entry 46] came in with an IC50 of less than 50 nM.

Regarding `CN(C)c1cccc2c(S(=O)(=O)N3CCN(S(=O)(=O)c4cc(F)c(Oc5ccc(Cl)cc5)c(F)c4)[C@@H](C(=O)NO)C3)cccc12` [Entry 60], the IC50 was 50 to 1000 nM.

`CCCC(CCC)C(=O)N1CCN(S(=O)(=O)c2cc(F)c(Oc3ccc(Cl)cc3)c(F)c2)[C@@H](C(=O)NO)C1` [Entry 44]: the IC50 was less than 50 nM.

As for `O=C(NO)[C@H]1CN(S(=O)(=O)CCN2CCCCC2)CCN1S(=O)(=O)c1cc(F)c(Oc2ccc(Cl)cc2)c(F)c1` [Entry 53], the 50% inhibitory concentration (IC50) was less than 50 nM.

Molecule `O=C(NO)[C@H]1CN(C(=O)OCc2ccccc2)CCN1S(=O)(=O)c1cc(F)c(Oc2ccc(Cl)cc2)c(F)c1` [Entry 32] registered an IC50 of less than 50 nM.

Molecule `N#Cc1ccc(Oc2ccc(S(=O)(=O)N3CCN(C(=O)N4CCOCC4)C[C@@H]3C(=O)NO)cc2F)cc1` [Entry 7] gave an IC50 of less than 50 nM.

`O=C(NO)[C@H]1CN(C(=O)OCCN2CCCCC2)CCN1S(=O)(=O)c1cc(F)c(Oc2ccc(Cl)cc2)c(F)c1` [Entry 27] had an IC50 of less than 50 nM.

Consider `COCCOC(=O)N1CCN(S(=O)(=O)c2ccc(Oc3ccc(Cl)cc3)c(F)c2)[C@@H](C(=O)NO)C1` [Entry 4], for which the IC50 is less than 50 nM.

The molecule `C=CCN1CCN(S(=O)(=O)c2cc(F)c(Oc3ccc(Cl)cc3)c(F)c2)[C@@H](C(=O)NO)C1` [Entry 62] gave an IC50 of 50 to 1000 nM.

In turn, `O=C(NO)[C@H]1CN(C(=O)N2CCOCC2)CCN1S(=O)(=O)c1ccc(-c2cccc(F)c2)nc1` [Entry 58] came in with an IC50 of less than 50 nM.

`O=C(NO)[C@H]1CN(C(=O)N2CCOCC2)CCN1S(=O)(=O)c1ccc(Oc2ccc(Cl)cc2)c(F)c1` [Entry 6] came in with an IC50 of less than 50 nM.

As to `O=C(NO)[C@H]1CN(S(=O)(=O)NC(=O)N2CCCCC2)CCN1S(=O)(=O)c1cc(F)c(Oc2ccc(Cl)cc2)c(F)c1` [Entry 37], the IC50 is less than 50 nM.

As to `CCCCCCC(=O)N1CCN(S(=O)(=O)c2cc(F)c(Oc3ccc(Cl)cc3)c(F)c2)[C@@H](C(=O)NO)C1` [Entry 43], the IC50 is less than 50 nM.

As to `COCCOC(=O)N1CCN(S(=O)(=O)c2cc(F)c(Oc3ccc(F)cc3)c(F)c2)[C@@H](C(=O)NO)C1` [Entry 10], the IC50 was less than 50 nM.

The molecule `O=C(NO)[C@H]1CN(C(=O)N2CCOCC2)CCN1S(=O)(=O)c1cc(F)c(Oc2ccc(Cl)cc2)c(F)c1` [Entry 30] returned an IC50 of less than 50 nM.

`CS(=O)(=O)N1CCN(S(=O)(=O)c2cc(F)c(Oc3ccc(Cl)cc3)c(F)c2)[C@@H](C(=O)NO)C1` [Entry 28] gave an IC50 of less than 50 nM.

Consider `O=C(NO)[C@H]1CN(C(=O)c2ccncc2)CCN1S(=O)(=O)c1cc(F)c(Oc2ccc(Cl)cc2)c(F)c1` [Entry 42], for which the concentration for half-maximal inhibition (IC50) was less than 50 nM.

For `O=C(NO)[C@H]1CN(S(=O)(=O)c2cccc3cnccc23)CCN1S(=O)(=O)c1cc(F)c(Oc2ccc(Cl)cc2)c(F)c1` [Entry 48], the IC50 was less than 50 nM.

Consider `CN1CCN(CCS(=O)(=O)N2CCN(S(=O)(=O)c3cc(F)c(Oc4ccc(Cl)cc4)c(F)c3)[C@@H](C(=O)NO)C2)CC1` [Entry 55], for which the IC50 is less than 50 nM.

The molecule `O=C(NO)[C@H]1CN(C(=O)c2ccc(-c3ccccc3)cc2)CCN1S(=O)(=O)c1cc(F)c(Oc2ccc(Cl)cc2)c(F)c1` [Entry 51] had an IC50 of 50 to 1000 nM.

The molecule `O=C(NO)[C@H]1CN(C(=O)c2cccnc2)CCN1S(=O)(=O)c1cc(F)c(Oc2ccc(Cl)cc2)c(F)c1` [Entry 59] registered an IC50 of less than 50 nM.

Regarding `O=C(NO)[C@H]1CN(C(=O)CN2CCCCC2)CCN1S(=O)(=O)c1cc(F)c(Oc2ccc(Cl)cc2)c(F)c1` [Entry 26], the IC50 is less than 50 nM.

In turn, `CN(C)c1ccc2c(S(=O)(=O)N3CCN(S(=O)(=O)c4cc(F)c(Oc5ccc(Cl)cc5)c(F)c4)[C@@H](C(=O)NO)C3)cccc2c1` [Entry 49] displayed an IC50 of 1000 to 20000 nM.

The molecule `CN1CCN(S(=O)(=O)c2cc(F)c(Oc3ccc(F)cc3)c(F)c2)[C@@H](C(=O)NO)C1` [Entry 14] returned an IC50 of 50 to 1000 nM.

In turn, `CCOC(=O)N1CCN(CCS(=O)(=O)N2CCN(S(=O)(=O)c3cc(F)c(Oc4ccc(Cl)cc4)c(F)c3)[C@@H](C(=O)NO)C2)CC1` [Entry 56] showed an IC50 of less than 50 nM.

`CN(C)C(=O)CN1CCN(S(=O)(=O)c2cc(F)c(Oc3ccc(Cl)cc3)c(F)c2)[C@@H](C(=O)NO)C1` [Entry 20]: the IC50 is less than 50 nM.

In the case of `O=C(NO)[C@H]1CN(S(=O)(=O)c2cc(F)c(O)c(F)c2)CCN1S(=O)(=O)c1cc(F)c(Oc2ccc(Cl)cc2)c(F)c1` [Entry 41], the IC50 is less than 50 nM.

`CC(C)(C)OC(=O)N1CCN(S(=O)(=O)c2cc(F)c(Oc3ccc(F)cc3)c(F)c2)[C@@H](C(=O)NO)C1` [Entry 9] yielded an IC50 of less than 50 nM.

For `COCCOC(=O)N1CCN(S(=O)(=O)c2ccc(Oc3ccc4c(c3)CCCC4)nc2)[C@@H](C(=O)NO)C1` [Entry 64], the IC50 was less than 50 nM.

Molecule `CN1CCC(OC(=O)N2CCN(S(=O)(=O)c3cc(F)c(Oc4ccc(Cl)cc4)c(F)c3)[C@@H](C(=O)NO)C2)CC1` [Entry 22] had an IC50 of less than 50 nM.

For the molecule `COCCOC(=O)N1CCN(S(=O)(=O)c2ccc(Oc3ccc(F)cc3)cc2)[C@@H](C(=O)NO)C1` [Entry 1], the IC50 was less than 50 nM.

`CCOC(=O)N1CCN(CC(=O)N2CCN(S(=O)(=O)c3cc(F)c(Oc4ccc(Cl)cc4)c(F)c3)[C@@H](C(=O)NO)C2)CC1` [Entry 23] had an IC50 of less than 50 nM.

`COCCOC(=O)N1CCN(S(=O)(=O)c2cc(F)c(Oc3ccccc3)c(F)c2)[C@@H](C(=O)NO)C1` [Entry 40]: the IC50 was less than 50 nM.

As to `O=C(NO)[C@H]1CNCCN1S(=O)(=O)c1cc(F)c(Oc2ccc(F)cc2)c(F)c1` [Entry 11], the IC50 is 50 to 1000 nM.

For `O=C(NO)[C@H]1CN(C(=O)C(=O)N2CCOCC2)CCN1S(=O)(=O)c1cc(F)c(Oc2ccc(Cl)cc2)c(F)c1` [Entry 31], the IC50 is less than 50 nM.

Molecule `O=C(NO)[C@H]1CN(C(=O)N2CCOCC2)CCN1S(=O)(=O)c1cc(F)c(Oc2ccc(F)cc2)c(F)c1` [Entry 12] came in with an IC50 of less than 50 nM.

Turning to `CCOC(=O)N1CCN(S(=O)(=O)c2cc(F)c(Oc3ccc(F)cc3)c(F)c2)[C@@H](C(=O)NO)C1` [Entry 13], the IC50 is less than 50 nM.

On to `O=C(NO)[C@H]1CN(C(=O)CN2CCOCC2)CCN1S(=O)(=O)c1cc(F)c(Oc2ccc(Cl)cc2)c(F)c1` [Entry 25], for which the IC50 is less than 50 nM.

`COCCOC(=O)N1CCN(S(=O)(=O)c2ccc(Oc3ccc(F)cc3)c(F)c2)[C@@H](C(=O)NO)C1` [Entry 3] gave an IC50 of less than 50 nM.

Take `O=C(NO)[C@H]1CN(C(=O)N2CCOCC2)CCN1S(=O)(=O)c1ccc(Oc2ccc(F)cc2)c(F)c1` [Entry 8]: the IC50 is less than 50 nM.

Molecule `CN1CCN(C(=O)NS(=O)(=O)N2CCN(S(=O)(=O)c3cc(F)c(Oc4ccc(Cl)cc4)c(F)c3)[C@@H](C(=O)NO)C2)CC1` [Entry 39] showed an IC50 of less than 50 nM.

Source of the values: patent US20110082114A1, “Methods of Treating Aneurysmal Dilatation, Blood Vessel Wall Weakness and Specifically Abdominal Aortic and Thoracic Aneurysm Using Matrix Metalloprotease-2 Inhibitors” (SYMPHONY EVOLUTION, INC., priority 2009, published 2011).
